Patent US12285416B2 (priority 2017, dated 2025)
Where “and” joins values, the source holds several entries; their conditions need not be identical. Equal entries are not always repeated. Where two headings read alike, the source gives them in different places.

Key:
[1] = system: rat left phrenic nerve-diaphragm preparation
[2] = system: rat left phrenic nerve-diaphragm preparation; remark: listed apart in the source
[3] = system: rat left phrenic nerve-diaphragm preparation; remark: listed apart in the source
anesthetized rabbit = settings: in vivo, iv
[4] = system: anesthetized/ventilated rat; settings: in vivo

Compound: C[C@@H]1O[C@H](C[N+](C)(C)C)C[C@H]1O (racemic) [Muscarine, (±)-Muscarine chloride hydrate]
- effect on force and maximal rate of change [1]: minimal or slight reduction of force, and maximal rate of change
- Contraction Amplitude, Raw Values ([1]; hydrate): 14.5 ± 1.4 g and 13.5 ± 1.2 g and 13.3 ± 1.2 g and 13.5 ± 1.3 g
- Max Rate of Change, Raw Values ([1]; hydrate): 341 ± 45 g/s and 314 ± 45 g/s and 321 ± 41 g/s and 329 ± 39 g/s

Compound: CN(C)C(=O)Oc1cccc([N+](C)(C)C)c1 [Neostigmine]
- Contraction Amplitude, Neostigmine with d-tubocurarine Raw Values [2]: 5.9 ± 0.8 g and 5.2 ± 0.6 g and 4.7 ± 1.2 g
- Max Rate of Change, Neostigmine with d-tubocurarine Raw Values [2]: 141 ± 30 g/s and 131 ± 21 g/s and 108 ± 39 g/s
- Contraction Amplitude, Raw Values [3]: 6.3 ± 0.5 g
- Contraction Amplitude, Δ from 50% reduction with MMB4 [3]: 0.6 g and 0.6 ± 0.1 g
- Max Rate of Change, Raw Values [3]: 153 ± 12 g/s
- Max Rate of Change, Δ from 50% reduction with MMB4 [3]: 20 ± 4 g/s

Compound: CN1CCC[C@H]1c1cccnc1 [Nicotine, (−)-Nicotine detartrate]
- Contraction Amplitude, Raw Values [1]: 10.8 ± 3.2 g and 9.7 ± 2.6 g
- Max Rate of Change, Raw Values [1]: 229 ± 97 g/s and 225 ± 102 g/s and 201 ± 94 g/s
- effect on contraction [1]: depressed contraction
- effect on contraction and maximal rate of change [1]: positive effect

Compound: CS(=O)(=O)[O-].[Na+] [Sodium Methanesulfonate]
- Contraction Amplitude, Raw Values [1]: 9.1 ± 0.8 g and 8.9 ± 0.8 g and 8.6 ± 0.8 g and 8.2 ± 0.7 g
- Max Rate of Change, Raw Values [1]: 211 ± 48 g/s and 214 ± 48 g/s and 210 ± 48 g/s and 197 ± 45 g/s
- effect on function [1]: minimal effect on function

Compound: COc1cc2c3cc1Oc1cc(ccc1O)C[C@@H]1c4c(cc(OC)c(O)c4Oc4ccc(cc4)C[C@@H]3N(C)CC2)CC[N+]1(C)C [d-tubocurarine, d-tubocurarine chloride hydrate]
- Contraction Amplitude, Raw Values [2]: 5.2 ± 0.8 g
- Max Rate of Change, Raw Values [2]: 106 ± 22 g/s
- Contraction Amplitude, d-tubocurarine Raw Values ([2]; hydrate): 5.2 ± 0.9 g and 4.3 ± 0.5 g and 4.4 ± 1.1 g
- Max Rate of Change, d-tubocurarine Raw Values ([2]; hydrate): 119 ± 31 g/s and 101 ± 20 g/s and 101 ± 35 g/s

Compound: Cisatracurium (Besilate salt)
- Diaphragmatic Force (anesthetized rabbit): 5.4 ± 1.0 g
- Diaphragmatic Force relative change from baseline (anesthetized rabbit): −77 ± 6%
- HR (anesthetized rabbit): 282 ± 7 bpm
- HR relative change from baseline (anesthetized rabbit): 0 ± 1%
- ITP (anesthetized rabbit): 15.1 ± 0.6 mmHg
- ITP relative change from baseline (anesthetized rabbit): 7 ± 4%
- LVEDP (anesthetized rabbit): 7.6 ± 1.1 mmHg
- LVEDP relative change from baseline (anesthetized rabbit): 17 ± 8%
- LVdP/dtmax (anesthetized rabbit): 2760 ± 246 mmHg/s
- LVdP/dtmax relative change from baseline (anesthetized rabbit): −6 ± 3%
- MAP (anesthetized rabbit): 63 ± 6 mmHg
- MAP relative change from baseline (anesthetized rabbit): −3 ± 3%
- Skeletal Force (anesthetized rabbit): 1.1 ± 0.5 g
- Skeletal Force relative change from baseline (anesthetized rabbit): −86 ± 5%
- tau (anesthetized rabbit): 8.7 ± 0.2 ms
- tau relative change from baseline (anesthetized rabbit): 0 ± 1%
- effect on cardiovascular function (anesthetized rabbit; 0.1 mg/kg): negligible effects in cardiovascular function
- effect on skeletal and diaphragmatic contractions (anesthetized rabbit; 0.1 mg/kg): reversible inhibition of skeletal and diaphragmatic contractions

Compound: pralidoxime chloride [2-PAM]
- effect on diaphragmatic function [4]: depression
